Experimental data reported in patent publication US8871765B2, “Substituted 4-(4-fluoro-3-(piperazine-1-carbonyl)benzyl)phthalazin-1(2H)-one derivatives as poly (ADP-ribose) polymerase-1 inhibitors” (Cadila Healthcare Limited, priority 2010, dated 2014).

Experiments:
[1] = system: MCF-7 cell line; test: Potentiation of cell killing activity of Methyl Methane Sulphonate (MMS) in MCF-7 cells, MTT assay; format: cell-based; conditions: compound at 100 nM, cell survival without/with alkylating agent MMS
Protocol: Potentiation of cell killing activity of Methyl Methane Sulphonate (MMS) by selected compounds according to present invention was evaluated in MCF-7 cell line obtained from National Centre for Cell Science, Pune, by using MTT assay according to general protocol described in Methods in Molecular Biology, Volume-43, In vitro Toxicity Testing Protocol, Chapter-6, page: 137-149. Compounds were tested for PARP 1 activity based on percent cell survival of MCF-7 cells with alkylating agent MMS.

[2] = biological target: T1, PARP-1 (Homo sapiens, UniProt P09874); test: PARP-1 inhibitory activity, HT universal colorimetric PARP assay kit (Trevigen); format: biochemical; conditions: HT universal colorimetric PARP assay kit; read-out: PARP-1 activity in vitro IC50 nM)
T1 construct: purchased Trevigen
Protocol: The compounds were tested for PARP-1 inhibitory activity by using HT universal colorimetric PARP assay kit obtained from Trevigen, following manufacturer's protocol.

T1 sequence (P09874 whole entry): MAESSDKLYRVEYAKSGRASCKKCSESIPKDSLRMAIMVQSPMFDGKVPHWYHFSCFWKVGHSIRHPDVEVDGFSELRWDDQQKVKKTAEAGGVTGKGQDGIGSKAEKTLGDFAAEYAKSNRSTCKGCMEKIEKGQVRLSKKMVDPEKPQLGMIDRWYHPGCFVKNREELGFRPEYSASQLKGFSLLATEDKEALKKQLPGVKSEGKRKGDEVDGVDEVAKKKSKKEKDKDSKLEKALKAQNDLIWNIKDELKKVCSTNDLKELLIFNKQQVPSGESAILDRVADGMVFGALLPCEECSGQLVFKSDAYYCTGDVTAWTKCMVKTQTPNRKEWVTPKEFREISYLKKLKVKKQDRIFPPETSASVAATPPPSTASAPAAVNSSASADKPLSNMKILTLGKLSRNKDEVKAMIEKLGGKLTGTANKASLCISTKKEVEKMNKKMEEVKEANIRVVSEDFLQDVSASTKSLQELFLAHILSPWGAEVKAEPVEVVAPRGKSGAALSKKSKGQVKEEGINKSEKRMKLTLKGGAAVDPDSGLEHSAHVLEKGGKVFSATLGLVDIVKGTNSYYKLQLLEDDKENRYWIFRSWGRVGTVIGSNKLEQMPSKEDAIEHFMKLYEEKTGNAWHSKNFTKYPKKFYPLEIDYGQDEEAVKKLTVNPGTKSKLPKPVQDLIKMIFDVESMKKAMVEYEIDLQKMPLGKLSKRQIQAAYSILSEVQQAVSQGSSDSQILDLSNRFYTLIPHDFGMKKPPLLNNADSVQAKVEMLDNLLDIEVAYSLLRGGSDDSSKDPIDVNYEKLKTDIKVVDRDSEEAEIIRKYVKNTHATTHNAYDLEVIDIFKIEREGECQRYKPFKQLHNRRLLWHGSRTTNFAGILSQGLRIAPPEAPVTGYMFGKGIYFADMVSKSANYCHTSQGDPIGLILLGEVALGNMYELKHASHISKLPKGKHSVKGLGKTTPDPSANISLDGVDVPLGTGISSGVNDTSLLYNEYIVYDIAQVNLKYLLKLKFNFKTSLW

Row | IC50 [2] [nM] | Structure (SMILES) | Survival affected by drug [(−MMS/+MMS)] at 100 nM [1]
1 | – | O=C(c1cc(Cc2n[nH]c(=O)c3ccccc23)ccc1F)N1CCN(C(=O)C2CC2)CC1 [AZD, reference compound] | 2.19
2 | 11 | COc1ccc(OC(C)(C)C(=O)N2CCN(C(=O)c3cc(Cc4n[nH]c(=O)c5ccccc45)ccc3F)CC2)cc1 [Example 3, 4-(4-fluoro-3-(4-(2-methyl-2-(4-methoxyphenoxy)propanoyl)piperazine-1-carbonyl)benzyl)phthalazin-1(2H)-one] | 2.07
3 | 13.9 | CC(C)(Oc1ccccn1)C(=O)N1CCN(C(=O)c2cc(Cc3n[nH]c(=O)c4ccccc34)ccc2F)CC1 [Example 17, 4-(4-fluoro-3-(4-(2-methyl-2-(pyridin-2-yloxy)propanoyl)piperazine-1-carbonyl)benzyl)phthalazin-1(2H)-one] | 1.93
4 | 12.4 | CC(C)(Oc1ccccc1[N+](=O)[O-])C(=O)N1CCN(C(=O)c2cc(Cc3n[nH]c(=O)c4ccccc34)ccc2F)CC1 [Example 19, 4-(4-fluoro-3-(4-(2-methyl-2-(2-nitrophenoxy)propanoyl)piperazine-1-carbonyl)benzyl)phthalazin-1(2H)-one] | 2.19
5 | 14.3 | CC(C)(Oc1ccc(Br)cc1Cl)C(=O)N1CCN(C(=O)c2cc(Cc3n[nH]c(=O)c4ccccc34)ccc2F)CC1 [Example 20, 4-(3-(4-(2-(4-bromo-2-chlorophenoxy)-2-methylpropanoyl)piperazine-1-carbonyl)-4-fluorobenzyl)phthalazin-1(2H)-one] | 2.15
6 | 12 | CC(C)(Oc1cccc(C(F)(F)F)c1)C(=O)N1CCN(C(=O)c2cc(Cc3n[nH]c(=O)c4ccccc34)ccc2F)CC1 [Example 21, 4-(4-fluoro-3-(4-(2-methyl-2-(3-(trifluoromethyl)phenoxy)propanoyl)piperazine-1-carbonyl)benzyl)phthalazin-1(2H)-one] | 1.62
7 | 5.3 | CC(C)(Sc1ccc(F)cc1)C(=O)N1CCN(C(=O)c2cc(Cc3n[nH]c(=O)c4ccccc34)ccc2F)CC1 [Example 22, 4-(4-fluoro-3-(4-(2-((4-fluorophenyl)thio)-2-methylpropanoyl)piperazine-1-carbonyl)benzyl)phthalazin-1(2H)-one] | 2.1
8 | 4.23 | CC(C)(C(=O)N1CCN(C(=O)c2cc(Cc3n[nH]c(=O)c4ccccc34)ccc2F)CC1)S(=O)(=O)c1ccccc1 [Example 23, 4-(4-fluoro-3-(4-(2-methyl-2-(phenylsulfonyl)propanoyl)piperazine-1-carbonyl)benzyl)phthalazin-1(2H)-one] | 2.11
9 | 4.66 | CC(C)(C(=O)N1CCN(C(=O)c2cc(Cc3n[nH]c(=O)c4ccccc34)ccc2F)CC1)S(=O)(=O)c1ccc(F)cc1 [Example 24, 4-(4-fluoro-3-(4-(2-((4-fluorophenyl)sulfonyl)-2-methylpropanoyl)piperazine-1-carbonyl)benzyl)phthalazin-1(2H)-one] | 2.28
10 | 5.94 | CC(C)(C(=O)N1CCN(C(=O)c2cc(Cc3n[nH]c(=O)c4ccccc34)ccc2F)CC1)[S+]([O-])c1ccc(F)cc1 (stereo not drawn) [Example 25, 4-(4-fluoro-3-(4-(2-((4-fluorophenyl)sulfinyl)-2-methylpropanoyl)piperazine-1-carbonyl)benzyl)phthalazin-1(2H)-one] | 2.15
11 | 6.43 | CC(C)(Oc1ccc(F)cc1F)C(=O)N1CCN(C(=O)c2cc(Cc3n[nH]c(=O)c4ccccc34)ccc2F)CC1 [Example 26, 4-(3-(4-(2-(2,4-difluorophenoxy)-2-methylpropanoyl)piperazine-1-carbonyl)-4-fluorobenzyl)phthalazin-1(2H)-one] | 2.59
12 | 5.17 | CC(C)(Sc1ccc(F)cc1F)C(=O)N1CCN(C(=O)c2cc(Cc3n[nH]c(=O)c4ccccc34)ccc2F)CC1 [Example 27, 4-(3-(4-(2-((2,4-difluorophenyl)thio)-2-methylpropanoyl)piperazine-1-carbonyl)-4-fluorobenzyl)phthalazin-1(2H)-one] | 2.49
13 | 7.08 | COc1cccc(SC(C)(C)C(=O)N2CCN(C(=O)c3cc(Cc4n[nH]c(=O)c5ccccc45)ccc3F)CC2)c1 [Example 28, 4-(4-fluoro-3-(4-(2-((3-methoxyphenyl)thio)-2-methylpropanoyl)piperazine-1-carbonyl)benzyl)phthalazin-1(2H)-one] | 2.08
14 | 8.6 | CC(C)(Sc1ccccc1Br)C(=O)N1CCN(C(=O)c2cc(Cc3n[nH]c(=O)c4ccccc34)ccc2F)CC1 [Example 29, 4-(3-(4-(2-((2-bromophenyl)thio)-2-methylpropanoyl)piperazine-1-carbonyl)-4-fluorobenzyl)phthalazin-1(2H)-one] | 2.22
15 | 9.38 | CC(C)(Sc1ccc(Cl)c(Cl)c1)C(=O)N1CCN(C(=O)c2cc(Cc3n[nH]c(=O)c4ccccc34)ccc2F)CC1 [Example 30, 4-(3-(4-(2-((3,4-dichlorophenyl)thio)-2-methylpropanoyl)piperazine-1-carbonyl)-4-fluorobenzyl)phthalazin-1(2H)-one] | 2.22
16 | 3.05 | CC(C)(Sc1ccc(Cl)cc1Cl)C(=O)N1CCN(C(=O)c2cc(Cc3n[nH]c(=O)c4ccccc34)ccc2F)CC1 [Example 31, 4-(3-(4-(2-((2,4-dichlorophenyl)thio)-2-methylpropanoyl)piperazine-1-carbonyl)-4-fluorobenzyl)phthalazin-1(2H)-one] | 1.94
17 | 5.7 | CC(C)(Sc1cccc(F)c1)C(=O)N1CCN(C(=O)c2cc(Cc3n[nH]c(=O)c4ccccc34)ccc2F)CC1 [Example 32, 4-(4-fluoro-3-(4-(2-((3-fluorophenyl)thio)-2-methylpropanoyl)piperazine-1-carbonyl)benzyl)phthalazin-1(2H)-one] | 2.08
18 | 7.9 | CC(C)(Sc1cc(Cl)ccc1Cl)C(=O)N1CCN(C(=O)c2cc(Cc3n[nH]c(=O)c4ccccc34)ccc2F)CC1 [Example 33, 4-(3-(4-(2-((2,5-dichlorophenyl)thio)-2-methylpropanoyl)piperazine-1-carbonyl)-4-fluorobenzyl)phthalazin-1(2H)-one] | 1.98
19 | 6.68 | CC(C)(Nc1ccc(F)cc1)C(=O)N1CCN(C(=O)c2cc(Cc3n[nH]c(=O)c4ccccc34)ccc2F)CC1 [Example 34, 4-(4-fluoro-3-(4-(2-((4-fluorophenyl)amino)-2-methylpropanoyl)piperazine-1-carbonyl)-benzyl)phthalazin-1(2H)-one] | 2.85
20 | 3.56 | CC(C)(Nc1ccccc1)C(=O)N1CCN(C(=O)c2cc(Cc3n[nH]c(=O)c4ccccc34)ccc2F)CC1 [Example 35, 4-(4-fluoro-3-(4-(2-methyl-2-(phenylamino)-propanoyl)piperazine-1-carbonyl)benzyl)phthalazin-1(2H)-one] | 3.33
21 | 5.17 | CC(C)(SC1CCCC1)C(=O)N1CCN(C(=O)c2cc(Cc3n[nH]c(=O)c4ccccc34)ccc2F)CC1 [Example 36, 4-(3-(4-(2-(cyclopentylthio)-2-methylpropanoyl)piperazine-1-carbonyl)-4-fluorobenzyl)phthalazin-1(2H)-one] | 2.59
22 | 16.5 | Cc1cc(OC(C)(C)C(=O)N2CCN(C(=O)c3cc(Cc4n[nH]c(=O)c5ccccc45)ccc3F)CC2)cc(C)c1Br [Example 37, 4-(3-(4-(2-(4-bromo-3,5-dimethylphenoxy)-2-methylpropanoyl)piperazine-1-carbonyl)-4-fluorobenzyl)phthalazin-1(2H)-one] | 1.61
23 | 5 | CC(C)(Sc1ccccn1)C(=O)N1CCN(C(=O)c2cc(Cc3n[nH]c(=O)c4ccccc34)ccc2F)CC1 [Example 38, 4-(4-fluoro-3-(4-(2-methyl-2-(pyridin-2-ylthio)propanoyl)piperazine-1-carbonyl)benzyl)phthalazin-1(2H)-one] | 1.96
24 | 9.47 | CC(C)(C(=O)N1CCN(C(=O)c2cc(Cc3n[nH]c(=O)c4ccccc34)ccc2F)CC1)[S+]([O-])c1ccc(Cl)cc1Cl (stereo not drawn) [Example 39, 4-(3-(4-(2-(2,4-dichlorophenylsulfinyl)-2-methylpropanoyl)piperazine-1-carbonyl)-4-fluorobenzyl)phthalazin-1(2H)-one] | 2.29
25 | 10.6 | CC(C)(Sc1ccccc1)C(=O)N1CCN(C(=O)c2cc(Cc3n[nH]c(=O)c4ccccc34)ccc2F)CC1 [Example 46, 4-(4-fluoro-3-(4-(2-methyl-2-(phenylthio)propanoyl)piperazine-1-carbonyl)benzyl)phthalazin-1(2H)-one] | 2.28
26 | 9.16 | CC(C)(Sc1ccc(Br)cc1)C(=O)N1CCN(C(=O)c2cc(Cc3n[nH]c(=O)c4ccccc34)ccc2F)CC1 [Example 47, 4-(3-(4-(2-((4-bromophenyl)thio)-2-methylpropanoyl)piperazine-1-carbonyl)-4-fluorobenzyl)phthalazin-1(2H)-one] | 2.12
